Toxic doses and inconclusive results are not listed. No stated cut-off is given here; in the data, active means T/C of 150% or more; inactive means T/C below 125%.
Test system: L1210 leukemia ip in BDF1 mice, survival T/C
Experiment: NCI In Vivo Anticancer Drug Screen. Data for tumor model L1210 Leukemia (intraperitoneal) in B6D2F1 (BDF1) mice
Details: endpoint: mean survival time, higher = longer survival
Procedure, shortened: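 Tumor was transplanted into mice, which were then dosed with test compound or vehicle alone. Survival was recorded for each group, and the treated figure was expressed relative to the control figure.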

[1] = dose: 100.0 mg/kg/injection, schedule: Q04DX002 (ip), vehicle: saline
[2] = dose: 200.0 mg/kg/injection, schedule: Q04DX002 (ip), vehicle: saline
[3] = dose: 400.0 mg/kg/injection, schedule: Q04DX002 (ip), vehicle: saline
[4] = dose: 100.0 mg/kg/injection, schedule: Q01DX001 (ip), vehicle: saline
[5] = dose: 200.0 mg/kg/injection, schedule: Q01DX001 (ip), vehicle: saline
[6] = dose: 400.0 mg/kg/injection, schedule: Q01DX001 (ip), vehicle: saline
[7] = dose: 100.0 mg/kg/injection, schedule: Q01DX009 (ip), vehicle: saline with Tween-80
[8] = dose: 200.0 mg/kg/injection, schedule: Q01DX009 (ip), vehicle: saline with Tween-80

Measured: T/C

CCCCCCCCNCCCCCCCC
inactive: dose: 4.62 mg/kg/injection, schedule: Q01DX009 (ip), vehicle: gum acacia 101 % of control | dose: 5.0 mg/kg/injection, schedule: Q01DX001 (ip), vehicle: other 95 % of control | dose: 9.25 mg/kg/injection, schedule: Q01DX009 (ip), vehicle: gum acacia 94 % of control | dose: 10.0 mg/kg/injection, schedule: Q01DX001 (ip), vehicle: other 95 % of control | dose: 18.5 mg/kg/injection, schedule: Q01DX009 (ip), vehicle: gum acacia 95 % of control | dose: 20.0 mg/kg/injection, schedule: Q01DX001 (ip), vehicle: other 90 % of control | dose: 37.0 mg/kg/injection, schedule: Q01DX009 (ip), vehicle: gum acacia 97 % of control | dose: 40.0 mg/kg/injection, schedule: Q01DX001 (ip), vehicle: other 93 % of control | dose: 80.0 mg/kg/injection, schedule: Q01DX001 (ip), vehicle: other 90 % of control | dose: 100.0 mg/kg/injection, schedule: Q01DX001 (ip), vehicle: other 100 % of control

Nc1ccc(CC(=O)NC(CCC(=O)O)C(=O)O)cc1 (configuration not stated)
inactive: [1] 103 % of control | [2] 91 % of control | [3] 100 % of control

Cc1ccccc1CCC(=O)OCC(=O)c1ccc(-c2ccccc2)cc1
inactive: [4] 96 % of control | [5] 88 % of control | [6] 92 % of control

CCN(C(C)=O)c1ccc(S(=O)(=O)Cl)cc1
inactive: dose: 100.0 mg/kg/injection, schedule: Q04DX003 (ip), vehicle: saline with Tween-80 97 % of control | dose: 200.0 mg/kg/injection, schedule: Q04DX003 (ip), vehicle: saline with Tween-80 88 % of control

CC(=O)NC1CC(CO)C(O)C1O (configuration not stated)
inactive: [4] 107 % of control | [5] 90 % of control | [6] 101 % of control

O=C(O)CN1C(=O)NC(C2CC2)(C2CC2)C1=O
inactive: dose: 100.0 mg/kg/injection, schedule: Q04DX003 (ip), vehicle: acetone 100 % of control | dose: 200.0 mg/kg/injection, schedule: Q04DX003 (ip), vehicle: acetone 96 % of control | dose: 400.0 mg/kg/injection, schedule: Q04DX003 (ip), vehicle: acetone 100 % of control

COc1ccc(C=NC2C(OC(C)=O)OC(COC(C)=O)C(OC(C)=O)C2OC(C)=O)cc1 (configuration not stated)
inactive: [4] 98 % of control | [5] 98 % of control | [6] 98 % of control

CCCCCCCCC(C(=O)c1ccccc1)C(O)(C(F)(F)F)C(F)(F)F (configuration not stated)
inactive: [7] 100 % of control | [8] 106 % of control

Cc1ccc(CNc2ccc(C)cc2)cc1
inactive: dose: 100.0 mg/kg/injection, schedule: Q01DX009 (ip), vehicle: Klucel (hydroxypropylcellulose) (HPC) 100 % of control | dose: 100.0 mg/kg/injection, schedule: Q04DX003 (ip), vehicle: Klucel (hydroxypropylcellulose) (HPC) 98 % of control | dose: 200.0 mg/kg/injection, schedule: Q01DX009 (ip), vehicle: Klucel (hydroxypropylcellulose) (HPC) 106 % of control | dose: 200.0 mg/kg/injection, schedule: Q04DX003 (ip), vehicle: Klucel (hydroxypropylcellulose) (HPC) 100 % of control | dose: 400.0 mg/kg/injection, schedule: Q01DX009 (ip), vehicle: Klucel (hydroxypropylcellulose) (HPC) 99 % of control | dose: 400.0 mg/kg/injection, schedule: Q04DX003 (ip), vehicle: Klucel (hydroxypropylcellulose) (HPC) 95 % of control

O=C1c2ccccc2-c2cccc([N+](=O)[O-])c21
inactive: dose: 100.0 mg/kg/injection, schedule: Q01DX001 (ip), vehicle: carboxymethylcellulose (CMC) 97 % of control | dose: 200.0 mg/kg/injection, schedule: Q01DX001 (ip), vehicle: carboxymethylcellulose (CMC) 92 % of control | dose: 400.0 mg/kg/injection, schedule: Q01DX001 (ip), vehicle: carboxymethylcellulose (CMC) 97 % of control

CC(=O)OC1CCC2(C)C(CCC3C2C(=O)C(OC(C)=O)C2(C)C3CC3OC4(CCC(C)CO4)C(C)C32)C1 (configuration not stated)
inactive: [7] 90 % of control | [8] 95 % of control | dose: 400.0 mg/kg/injection, schedule: Q01DX009 (ip), vehicle: saline with Tween-80 101 % of control

O=[N+]([O-])/C=C/c1ccccc1O
inactive: dose: 6.25 mg/kg/injection, schedule: Q04DX003 (ip), vehicle: saline 92 % of control | dose: 12.5 mg/kg/injection, schedule: Q04DX003 (ip), vehicle: saline 101 % of control | dose: 25.0 mg/kg/injection, schedule: Q04DX003 (ip), vehicle: saline 92 % of control

CCN(CC)CCOC(=O)Nc1ccccc1
inactive: dose: 50.0 mg/kg/injection, schedule: Q04DX003 (ip), vehicle: saline 98 % of control | dose: 100.0 mg/kg/injection, schedule: Q04DX003 (ip), vehicle: saline 90 % of control

CCCCNC(N)=O
inactive: [1] 101 % of control | [2] 96 % of control | [3] 92 % of control

Cc1ccc(SC2=C(Br)C(=O)c3ccccc3C2=O)cc1
inactive: dose: 37.5 mg/kg/injection, schedule: Q01DX001 (ip), vehicle: carboxymethylcellulose (CMC) 92 % of control | dose: 75.0 mg/kg/injection, schedule: Q01DX001 (ip), vehicle: carboxymethylcellulose (CMC) 94 % of control | dose: 150.0 mg/kg/injection, schedule: Q01DX001 (ip), vehicle: carboxymethylcellulose (CMC) 103 % of control

Source: PubChem BioAssay AID248 (DTP/NCI, 2004)
